Laboratory results taken from patent publication US9931347B2, “Pharmaceutical compound” (IOmet Pharma Ltd., priority 2013, dated 2018).

Key:
[1] = molecular target: T1, TDO (A172 human glioblastoma cells) (Homo sapiens, UniProt P48775); experiment: A172 Kynurenine cell based assay; details: 500 μM L-tryptophan, 48 hours, kynurenine by Erhlich's reagent
T1 construct: This assay utilised cancer cells which expressed either TDO or IDO; endogenous in cells; host or cells: A172 human glioblastoma cells
Method in brief: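 Kynurenine released into the supernatant was quantified by absorbance at 490 nm after 5 min with Erhlich's reagent. A172 cells were seeded at 30,000/well and exposed to test compound for 48 hours at 37° C. in phenol red-free RPMI containing 500 μM L-tryptophan, 10% FCS and 2 mM L-glutamine.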

[2] = molecular target: T2, IDO (SKOV3 human ovarian adenocarcinoma cells, IFN-γ induced) (Homo sapiens, UniProt P14902); experiment: SKOV3 Kynurenine cell based assay; details: IDO induced by 500 ng/ml IFN-γ, 500 μM L-tryptophan, 48 hours
T2 construct: IDO expression was induced in the SKOV3 cells by the addition of 500 ng/ml IFN-γ; endogenous in cells; host or cells: SKOV3 human ovarian adenocarcinoma cells, induced with IFN-γ
Method in brief: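 Kynurenine in the supernatant, detected by Ehrlich's reagent, served as read-out after 48 h at 37° C with or without test compound. SKOV3 cells (40,000/well) were grown in phenol red-free RPMI, 10% FCS, 2 mM L-glutamine, 500 μM L-tryptophan, with 500 ng/ml IFN-γ to induce IDO.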

Recombinant human IDO = Recombinant human IDO (Homo sapiens, UniProt P14902); experiment: hIDO biochemical coupled assay; details: 45 μM L-tryptophan, coupled with kynurenine formamidase
Method: (§1) Exemplary compounds of the invention were prepared, and tested to determine their effect as TDO and/or IDO inhibitors. Two different assays were employed: 1. a cell-based assay for detecting the effect of test compounds on kynurenine production in two different cancer cell types. This assay utilised cancer cells which expressed either TDO or IDO and as such was used as a means of testing compound activity at these two enzymes in a cell-based context. 2. a TDO and IDO biochemical coupled assay which utilised recombinantly produced and purified TDO and IDO enzymes in combination with the enzyme formamidase. This coupled enzyme system allowed conversion of N-formylkynurenine produced by TDO or IDO activity to kynurenine which was then quantified by fluorescence following addition of Erhlich's Reagent The protocols for these are set out below.
Recombinant human IDO or TDO was incubated in 50 mM KPO4 (pH 7.0), 0.5 mM EGTA, 0.5 mM EDTA, 0.05% Triton™ X100, 20 mM ascorbate, 10 μM methylene blue, 500 U/ml catalase, 50 μg/ml KynB (kynurenine formamidase).

Recombinant human TDO = Recombinant human TDO (Homo sapiens, UniProt P48775); experiment: hTDO biochemical coupled assay; details: 330 μM L-tryptophan, coupled with kynurenine formamidase
Method: as §1
Recombinant human IDO or TDO was incubated in 50 mM KPO4 (pH 7.0), 0.5 mM EGTA, 0.5 mM EDTA, 0.05% Triton™ X100, 20 mM ascorbate, 10 μM methylene blue, 500 U/ml catalase, 50 μg/ml KynB (kynurenine formamidase). TDO assays were carried out in the presence of 330 μM L-tryptophan, while IDO assays had the addition of 45 μM L-tryptophan. After incubation for 17 minutes at room temperature the reactions were stopped by the addition of Erhlich's reagent and incubated at room temperature for 5 minutes before the fluorescence was read (Ex475, Em530).

Chain of Recombinant human IDO (P14902 whole entry): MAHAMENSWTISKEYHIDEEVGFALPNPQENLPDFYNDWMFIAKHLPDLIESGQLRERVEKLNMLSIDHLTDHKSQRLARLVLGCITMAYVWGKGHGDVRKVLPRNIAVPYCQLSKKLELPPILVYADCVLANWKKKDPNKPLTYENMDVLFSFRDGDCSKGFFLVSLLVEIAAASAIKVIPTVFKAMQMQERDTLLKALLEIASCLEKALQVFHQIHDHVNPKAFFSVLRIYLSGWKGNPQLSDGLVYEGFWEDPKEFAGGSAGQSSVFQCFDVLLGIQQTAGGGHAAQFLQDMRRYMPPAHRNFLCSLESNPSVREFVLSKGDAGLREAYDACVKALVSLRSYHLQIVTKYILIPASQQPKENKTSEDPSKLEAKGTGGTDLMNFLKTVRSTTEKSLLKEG
T2 sequence (P14902 whole entry): as above
Chain of Recombinant human TDO (P48775 whole entry): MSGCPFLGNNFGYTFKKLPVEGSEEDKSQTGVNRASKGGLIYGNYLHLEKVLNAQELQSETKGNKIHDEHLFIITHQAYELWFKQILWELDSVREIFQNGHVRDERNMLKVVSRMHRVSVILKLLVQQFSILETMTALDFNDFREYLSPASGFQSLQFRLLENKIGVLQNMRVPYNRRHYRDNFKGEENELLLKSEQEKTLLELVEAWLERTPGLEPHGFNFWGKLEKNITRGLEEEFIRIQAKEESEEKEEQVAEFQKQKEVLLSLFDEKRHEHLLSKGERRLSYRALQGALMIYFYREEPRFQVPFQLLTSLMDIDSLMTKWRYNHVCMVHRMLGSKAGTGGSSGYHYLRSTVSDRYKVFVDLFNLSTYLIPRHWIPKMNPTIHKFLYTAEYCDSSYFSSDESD
T1 sequence (P48775 whole entry): as above

COC(=O)c1ccccc1S(=O)(=O)N1CCC(c2c[nH]c3ccc(C#N)cc23)CC1 [Compound 56]
A172 Kynurenine cell based assay pIC50 [1]: +− (+− = pIC50 <4.00) | SKOV3 Kynurenine cell based assay pIC50 [2]: ++ (++ = pIC50 5.00-5.99) | hIDO biocehmical assay pIC50 (Recombinant human IDO): +− (+− = pIC50 <4.00) | hTDO biochemical assay pIC50 (Recombinant human TDO): +− (+− = pIC50 <4.00)

CCCS(=O)(=O)N1CC=C(c2c[nH]c3cc(F)ccc23)CC1 [Compound 7]
A172 Kynurenine cell based assay pIC50 [1]: +++ (+++ = pIC50 ≥6.00) | SKOV3 Kynurenine cell based assay pIC50 [2]: + (+ = pIC50 4.00-4.99) | hIDO biocehmical assay pIC50 (Recombinant human IDO): +− (+− = pIC50 <4.00) | hTDO biochemical assay pIC50 (Recombinant human TDO): ++ (++ = pIC50 5.00-5.99)

O=S(=O)(c1cccc(OC(F)(F)F)c1)N1CCC(c2c[nH]c3ccccc23)CC1 [Compound 57]
A172 Kynurenine cell based assay pIC50 [1]: + (+ = pIC50 4.00-4.99) | SKOV3 Kynurenine cell based assay pIC50 [2]: + (+ = pIC50 4.00-4.99) | hIDO biocehmical assay pIC50 (Recombinant human IDO): +− (+− = pIC50 <4.00) | hTDO biochemical assay pIC50 (Recombinant human TDO): +− (+− = pIC50 <4.00)

Cc1[nH]c2ccccc2c1C1CCN(S(=O)(=O)c2ccc([N+](=O)[O-])cc2)CC1 [Compound 25]
A172 Kynurenine cell based assay pIC50 [1]: +− (+− = pIC50 <4.00) | SKOV3 Kynurenine cell based assay pIC50 [2]: + (+ = pIC50 4.00-4.99) | hIDO biocehmical assay pIC50 (Recombinant human IDO): +− (+− = pIC50 <4.00) | hTDO biochemical assay pIC50 (Recombinant human TDO): +− (+− = pIC50 <4.00)

CS(=O)(=O)N1CC=C(c2c[nH]c3cccc(F)c23)CC1 [Compound 78]
A172 Kynurenine cell based assay pIC50 [1]: + (+ = pIC50 4.00-4.99) | SKOV3 Kynurenine cell based assay pIC50 [2]: +− (+− = pIC50 <4.00) | hIDO biocehmical assay pIC50 (Recombinant human IDO): +− (+− = pIC50 <4.00) | hTDO biochemical assay pIC50 (Recombinant human TDO): + (+ = pIC50 4.00-4.99)

CNS(=O)(=O)N1CC=C(c2c[nH]c3cc(F)ccc23)CC1 [Compound 256]
A172 Kynurenine cell based assay pIC50 [1]: ++ (++ = pIC50 5.00-5.99) | SKOV3 Kynurenine cell based assay pIC50 [2]: + (+ = pIC50 4.00-4.99) | hTDO biochemical assay pIC50 (Recombinant human TDO): + (+ = pIC50 4.00-4.99)

Cc1cccc2c(C3CCN(C(=O)c4ccc(F)c(C(F)(F)F)c4)CC3)c[nH]c12 [Compound 54]
A172 Kynurenine cell based assay pIC50 [1]: + (+ = pIC50 4.00-4.99) | SKOV3 Kynurenine cell based assay pIC50 [2]: + (+ = pIC50 4.00-4.99) | hIDO biocehmical assay pIC50 (Recombinant human IDO): +− (+− = pIC50 <4.00) | hTDO biochemical assay pIC50 (Recombinant human TDO): +− (+− = pIC50 <4.00)

O=S(=O)(c1cc(C(F)(F)F)ccc1C(F)(F)F)N1CCC(c2c[nH]c3ccc(F)cc23)CC1 [Compound 26]
A172 Kynurenine cell based assay pIC50 [1]: +− (+− = pIC50 <4.00) | SKOV3 Kynurenine cell based assay pIC50 [2]: + (+ = pIC50 4.00-4.99) | hIDO biocehmical assay pIC50 (Recombinant human IDO): +− (+− = pIC50 <4.00) | hTDO biochemical assay pIC50 (Recombinant human TDO): +− (+− = pIC50 <4.00)

CCn1ncc(S(=O)(=O)N2CCC3(CC2)C(=O)Nc2ccccc23)c1C [Compound 173]
A172 Kynurenine cell based assay pIC50 [1]: + (+ = pIC50 4.00-4.99) | SKOV3 Kynurenine cell based assay pIC50 [2]: + (+ = pIC50 4.00-4.99) | hIDO biocehmical assay pIC50 (Recombinant human IDO): +− (+− = pIC50 <4.00) | hTDO biochemical assay pIC50 (Recombinant human TDO): +− (+− = pIC50 <4.00)

CC(=O)N1CCC(c2c[nH]c3cccc(F)c23)CC1 [Compound 98]
A172 Kynurenine cell based assay pIC50 [1]: + (+ = pIC50 4.00-4.99) | SKOV3 Kynurenine cell based assay pIC50 [2]: +− (+− = pIC50 <4.00) | hIDO biocehmical assay pIC50 (Recombinant human IDO): +− (+− = pIC50 <4.00) | hTDO biochemical assay pIC50 (Recombinant human TDO): +− (+− = pIC50 <4.00)

CC(=O)N1CC=C(c2c[nH]c3cc(Cl)ccc23)CC1 [Compound 79]
A172 Kynurenine cell based assay pIC50 [1]: ++ (++ = pIC50 5.00-5.99) | SKOV3 Kynurenine cell based assay pIC50 [2]: + (+ = pIC50 4.00-4.99) | hIDO biocehmical assay pIC50 (Recombinant human IDO): +− (+− = pIC50 <4.00) | hTDO biochemical assay pIC50 (Recombinant human TDO): ++ (++ = pIC50 5.00-5.99)

CS(=O)(=O)N1CCC(c2c[nH]c3ccccc23)CC1 [Compound 3]
A172 Kynurenine cell based assay pIC50 [1]: ++ (++ = pIC50 5.00-5.99) | SKOV3 Kynurenine cell based assay pIC50 [2]: +− (+− = pIC50 <4.00) | hIDO biocehmical assay pIC50 (Recombinant human IDO): +− (+− = pIC50 <4.00) | hTDO biochemical assay pIC50 (Recombinant human TDO): ++ (++ = pIC50 5.00-5.99)

CS(=O)(=O)N1CC=C(c2c[nH]c3ccc(F)cc23)CC1 [Compound 90]
A172 Kynurenine cell based assay pIC50 [1]: ++ (++ = pIC50 5.00-5.99) | SKOV3 Kynurenine cell based assay pIC50 [2]: + (+ = pIC50 4.00-4.99) | hIDO biocehmical assay pIC50 (Recombinant human IDO): +− (+− = pIC50 <4.00) | hTDO biochemical assay pIC50 (Recombinant human TDO): ++ (++ = pIC50 5.00-5.99)

CC(C)C(=O)N1CCC(c2c[nH]c3ccccc23)CC1 [Compound 106]
A172 Kynurenine cell based assay pIC50 [1]: + (+ = pIC50 4.00-4.99) | SKOV3 Kynurenine cell based assay pIC50 [2]: +− (+− = pIC50 <4.00) | hIDO biocehmical assay pIC50 (Recombinant human IDO): +− (+− = pIC50 <4.00) | hTDO biochemical assay pIC50 (Recombinant human TDO): +− (+− = pIC50 <4.00)

O=C(CO)N1CCC(c2c[nH]c3cc(F)ccc23)CC1 [Compound 269]
A172 Kynurenine cell based assay pIC50 [1]: ++ (++ = pIC50 5.00-5.99) | SKOV3 Kynurenine cell based assay pIC50 [2]: + (+ = pIC50 4.00-4.99) | hTDO biochemical assay pIC50 (Recombinant human TDO): + (+ = pIC50 4.00-4.99)

CNS(=O)(=O)N1CCC(c2c[nH]c3cc(F)ccc23)CC1 [Compound 257]
A172 Kynurenine cell based assay pIC50 [1]: ++ (++ = pIC50 5.00-5.99) | SKOV3 Kynurenine cell based assay pIC50 [2]: + (+ = pIC50 4.00-4.99) | hTDO biochemical assay pIC50 (Recombinant human TDO): + (+ = pIC50 4.00-4.99)

CS(=O)(=O)N1CCC(c2c[nH]c3cc(F)c(F)cc23)CC1 [Compound 236]
A172 Kynurenine cell based assay pIC50 [1]: ++ (++ = pIC50 5.00-5.99) | SKOV3 Kynurenine cell based assay pIC50 [2]: + (+ = pIC50 4.00-4.99) | hTDO biochemical assay pIC50 (Recombinant human TDO): + (+ = pIC50 4.00-4.99)

CCCS(=O)(=O)N1CCC(c2c[nH]c3cc(F)ccc23)CC1 [Compound 292]
A172 Kynurenine cell based assay pIC50 [1]: ++ (++ = pIC50 5.00-5.99) | SKOV3 Kynurenine cell based assay pIC50 [2]: + (+ = pIC50 4.00-4.99) | hTDO biochemical assay pIC50 (Recombinant human TDO): + (+ = pIC50 4.00-4.99)

CN(C)S(=O)(=O)N1CC=C(c2c[nH]c3cc(F)ccc23)CC1 [Compound 251]
A172 Kynurenine cell based assay pIC50 [1]: +++ (+++ = pIC50 ≥6.00) | SKOV3 Kynurenine cell based assay pIC50 [2]: + (+ = pIC50 4.00-4.99) | hTDO biochemical assay pIC50 (Recombinant human TDO): + (+ = pIC50 4.00-4.99)

COCCS(=O)(=O)N1CCC(c2c[nH]c3cc(F)ccc23)CC1 [Compound 285]
A172 Kynurenine cell based assay pIC50 [1]: ++ (++ = pIC50 5.00-5.99) | SKOV3 Kynurenine cell based assay pIC50 [2]: + (+ = pIC50 4.00-4.99) | hTDO biochemical assay pIC50 (Recombinant human TDO): + (+ = pIC50 4.00-4.99)

CCC(=O)N1CCC(c2c[nH]c3cc(F)ccc23)CC1 [Compound 263]
A172 Kynurenine cell based assay pIC50 [1]: ++ (++ = pIC50 5.00-5.99) | SKOV3 Kynurenine cell based assay pIC50 [2]: ++ (++ = pIC50 5.00-5.99) | hTDO biochemical assay pIC50 (Recombinant human TDO): + (+ = pIC50 4.00-4.99)

CC(=O)N1CCCN(c2c[nH]c3ccccc23)CC1 [Compound 308]
SKOV3 Kynurenine cell based assay pIC50 [2]: + (+ = pIC50 4.00-4.99) | hTDO biochemical assay pIC50 (Recombinant human TDO): + (+ = pIC50 4.00-4.99)

O=C(C1CC1)N1CCC(c2c[nH]c3cc(F)ccc23)CC1 [Compound 265]
A172 Kynurenine cell based assay pIC50 [1]: ++ (++ = pIC50 5.00-5.99) | SKOV3 Kynurenine cell based assay pIC50 [2]: + (+ = pIC50 4.00-4.99) | hTDO biochemical assay pIC50 (Recombinant human TDO): + (+ = pIC50 4.00-4.99)

O=S(=O)(C1CC1)N1CCC(c2c[nH]c3cc(F)ccc23)CC1 [Compound 288]
A172 Kynurenine cell based assay pIC50 [1]: ++ (++ = pIC50 5.00-5.99) | SKOV3 Kynurenine cell based assay pIC50 [2]: + (+ = pIC50 4.00-4.99) | hTDO biochemical assay pIC50 (Recombinant human TDO): + (+ = pIC50 4.00-4.99)
